Measured values: patent US9499550B2 (BRISTOL-MYERS SQUIBB COMPANY, priority 2012, dated 2016)
Read-outs that look alike come from different tables or passages of the source.

How the values were obtained:
[1] = system: HCV genotype 1b (Con1) replicon in HUH-7 cells; assay: HCV replicon luciferase reporter assay, genotype 1b; format: cell-based; conditions: Hepatitis C virus, Huh-7, 72 h, HCV genotype 1b replicon luciferase, 3 days incubation
Method in brief: (§1)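 Replicon inhibition for both genotypes was measured as Renilla luciferase signal (EnduRen, 7.5 μM final, 2 h) after 3-day, 37° C exposure of replicon-bearing HUH-7 cells in 4% FCS DMEM, 0.5% DMSO. The 1b construct carries S1179I; the 1a H77 construct carries P1496L and S2204I. Twenty-point, 3-fold dilutions were fitted four-parametrically for EC50, and CC50 was taken from multiplexed Cell Titer-Blue.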

[2] = system: HCV genotype 1a (H77 strain) replicon in HUH-7 cells; assay: HCV replicon luciferase reporter assay, genotype 1a; format: cell-based; conditions: Hepatitis C virus, Huh-7, 72 h, HCV genotype 1a replicon luciferase, 3 days incubation
Method in brief: as §1

Row | SMILES | EC50 ([1]; read-out: LE_1b (EC50)) [nM] | EC50 ([1]; read-out: LE_1b (EC50, range)) [nM] | EC50 ([2]; read-out: LE_1a (EC50)) [nM] | EC50 ([2]; read-out: LE_1a (EC50, range)) [nM]
1 | CCn1nc(O[C@@H]2C[C@H]3C(=O)N[C@]4(C(=O)NS(=O)(=O)C5(C)CC5)C[C@H]4/C=C\CC[C@H](C)C[C@@H](C)[C@H](NC(=O)C(=O)N(C)C)C(=O)N3C2)c2ccccc2c1=O [Compound 5062, N1-((2R,6S,7R,9S,13aS,14aR,16aS,Z)-2-((3-ethyl-4-oxo-3,4-dihydrophthalazin-1-yl)oxy)-7,9-dimethyl-14a-(((1-methylcyclopropyl)sulfonyl)carbamoyl)-5,16-dioxo-1,2,3,5,6,7,8,9,10,11,13a,14,14a,15,16,16a-hexadecahydrocyclopropa[e]pyrrolo[1,2-a][1,4]diazacyclopentadecin-6-yl)-N2,N2-dimethyloxalamide] | 1000 | > 87.4 | ≥ 1000 | > 87.4
2 | CCn1nc(O[C@@H]2C[C@H]3C(=O)N[C@]4(C(=O)NS(=O)(=O)C5(C)CC5)C[C@H]4/C=C\CC[C@@H](C)C[C@@H](C)[C@H](NC(=O)C(=O)N(C)C)C(=O)N3C2)c2ccccc2c1=O [Compound 5063, N1-((2R,6S,7R,9R,13aS,14aR,16aS,Z)-2-((3-ethyl-4-oxo-3,4-dihydrophthalazin-1-yl)oxy)-7,9-dimethyl-14a-(((1-methylcyclopropyl)sulfonyl)carbamoyl)-5,16-dioxo-1,2,3,5,6,7,8,9,10,11,13a,14,14a,15,16,16a-hexadecahydrocyclopropa[e]pyrrolo[1,2-a][1,4]diazacyclopentadecin-6-yl)-N2,N2-dimethyloxalamide] | 479 | > 87.4 | ≥ 1000 | > 87.4
3 | CCn1nc(O[C@@H]2C[C@H]3C(=O)N[C@]4(C(=O)NS(=O)(=O)C5(C)CC5)C[C@H]4/C=C\CC[C@H](C)C[C@@H](C)[C@H](NC(=O)OC(C)(C)C)C(=O)N3C2)c2ccccc2c1=O [Compound 5064, tert-butyl ((2R,6S,7R,9S,13aS,14aR,16aS,Z)-2-((3-ethyl-4-oxo-3,4-dihydrophthalazin-1-yl)oxy)-7,9-dimethyl-14a-(((1-methylcyclopropyl)sulfonyl)carbamoyl)-5,16-dioxo-1,2,3,5,6,7,8,9,10,11,13a,14,14a,15,16,16a-hexadecahydrocyclopropa[e]pyrrolo[1,2-a][1,4]diazacyclopentadecin-6-yl)carbamate] |  | 4.82 to 103 |  | > 87.4
4 | CCn1nc(O[C@@H]2C[C@H]3C(=O)N[C@]4(C(=O)NS(=O)(=O)C5(C)CC5)C[C@H]4/C=C\CC[C@@H](C)C[C@@H](C)[C@H](NC(=O)OC(C)(C)C)C(=O)N3C2)c2ccccc2c1=O [Compound 5065, tert-butyl ((2R,6S,7R,9R,13aS,14aR,16aS,Z)-2-((3-ethyl-4-oxo-3,4-dihydrophthalazin-1-yl)oxy)-7,9-dimethyl-14a-(((1-methylcyclopropyl)sulfonyl)carbamoyl)-5,16-dioxo-1,2,3,5,6,7,8,9,10,11,13a,14,14a,15,16,16a-hexadecahydrocyclopropa[e]pyrrolo[1,2-a][1,4]diazacyclopentadecin-6-yl)carbamate] |  | < 5.46 |  | 4.82 to 103
5 | CCn1nc(O[C@@H]2C[C@H]3C(=O)N[C@]4(C(=O)NS(=O)(=O)C5CC5)C[C@H]4/C=C\CC[C@H](C)C[C@@H](C)[C@H](NC(=O)OC(C)(C)C(F)(F)F)C(=O)N3C2)c2ccccc2c1=O [Compound 5066, 1,1,1-trifluoro-2-methylpropan-2-yl((2R,6S,7R,9S,13aS,14aR,16aS,Z)-14a-((cyclopropylsulfonyl)carbamoyl)-2-((3-ethyl-4-oxo-3,4-dihydrophthalazin-1-yl)oxy)-7,9-dimethyl-5,16-dioxo-1,2,3,5,6,7,8,9,10,11,13a,14,14a,15,16,16a-hexadecahydrocyclopropa[e]pyrrolo[1,2-a][1,4]diazacyclopentadecin-6-yl)carbamate] |  | > 87.4 |  | > 87.4
6 | CCn1nc(O[C@@H]2C[C@H]3C(=O)N[C@]4(C(=O)NS(=O)(=O)C5CC5)C[C@H]4/C=C\CC[C@@H](C)C[C@@H](C)[C@H](NC(=O)OC(C)(C)C(F)(F)F)C(=O)N3C2)c2ccccc2c1=O [Compound 5067, 1,1,1-trifluoro-2-methylpropan-2-yl((2R,6S,7R,9R,13aS,14aR,16aS,Z)-14a-((cyclopropylsulfonyl)carbamoyl)-2-((3-ethyl-4-oxo-3,4-dihydrophthalazin-1-yl)oxy)-7,9-dimethyl-5,16-dioxo-1,2,3,5,6,7,8,9,10,11,13a,14,14a,15,16,16a-hexadecahydrocyclopropa[e]pyrrolo[1,2-a][1,4]diazacyclopentadecin-6-yl)carbamate] |  | 4.82 to 103 |  | 4.82 to 103
7 | [2H]C([2H])([2H])C(OC(=O)N[C@@H]1C(=O)N2C[C@H](Oc3nn(CC)c(=O)c4ccccc34)C[C@H]2C(=O)N[C@]2(C(=O)NS(=O)(=O)C3CC3)C[C@H]2/C=C\CC[C@H](C)C[C@H]1C)(C([2H])([2H])[2H])C(F)(F)F [Compound 5068] |  | > 87.4 |  | > 87.4
8 | [2H]C([2H])([2H])C(OC(=O)N[C@@H]1C(=O)N2C[C@H](Oc3nn(CC)c(=O)c4ccccc34)C[C@H]2C(=O)N[C@]2(C(=O)NS(=O)(=O)C3CC3)C[C@H]2/C=C\CC[C@@H](C)C[C@H]1C)(C([2H])([2H])[2H])C(F)(F)F [Compound 5069] | 7.21 | 4.82 to 103 | 14.9 | 4.82 to 103
9 | CCn1nc(O[C@@H]2C[C@H]3C(=O)N[C@]4(C(=O)NS(=O)(=O)C5CC5)C[C@H]4/C=C\CC[C@@H](C)C[C@@H](C)[C@H](NC(=O)O[C@@H]4C[C@@H]5C[C@@H]5C4)C(=O)N3C2)c2ccccc2c1=O [Compound 5070, (1R,3r,5S)-bicyclo[3.1.0]hexan-3-yl((2R,6S,7R,9R,13aS,14aR,16aS,Z)-14a-((cyclopropylsulfonyl)carbamoyl)-2-((3-ethyl-4-oxo-3,4-dihydrophthalazin-1-yl)oxy)-7,9-dimethyl-5,16-dioxo-1,2,3,5,6,7,8,9,10,11,13a,14,14a,15,16,16a-hexadecahydrocyclopropa[e]pyrrolo[1,2-a][1,4]diazacyclopentadecin-6-yl)carbamate] |  | < 5.46 |  | 4.82 to 103
10 | CCn1nc(O[C@@H]2C[C@H]3C(=O)N[C@]4(C(=O)NS(=O)(=O)C5CC5)C[C@H]4/C=C\CC[C@H](C)C[C@@H](C)[C@H](NC(=O)NC(C)(C)C)C(=O)N3C2)c2ccccc2c1=O [Compound 5071, (2R,6S,7R,9S,13aS,14aR,16aS,Z)-6-(3-(tert-butyl)ureido)-N-(cyclopropylsulfonyl)-2-((3-ethyl-4-oxo-3,4-dihydrophthalazin-1-yl)oxy)-7,9-dimethyl-5,16-dioxo-1,2,3,5,6,7,8,9,10,11,13a,14,14a,15,16,16a-hexadecahydrocyclopropa[e]pyrrolo[1,2-a][1,4]diazacyclopentadecine-14a-carboxamide] | 1000 | > 87.4 | ≥ 1000 | > 87.4
11 | CCn1nc(O[C@@H]2C[C@H]3C(=O)N[C@]4(C(=O)NS(=O)(=O)C5CC5)C[C@H]4/C=C\CC[C@@H](C)C[C@@H](C)[C@H](NC(=O)NC(C)(C)C)C(=O)N3C2)c2ccccc2c1=O [Compound 5072, (2R,6S,7R,9R,13aS,14aR,16aS,Z)-6-(3-(tert-butyl)ureido)-N-(cyclopropylsulfonyl)-2-((3-ethyl-4-oxo-3,4-dihydrophthalazin-1-yl)oxy)-7,9-dimethyl-5,16-dioxo-1,2,3,5,6,7,8,9,10,11,13a,14,14a,15,16,16a-hexadecahydrocyclopropa[e]pyrrolo[1,2-a][1,4]diazacyclopentadecine-14a-carboxamide] |  | 4.82 to 103 |  | > 87.4
12 | CCn1nc(O[C@@H]2C[C@H]3C(=O)N[C@]4(C(=O)NS(=O)(=O)C5CC5)C[C@H]4/C=C\CC[C@H](C)C[C@@H](C)[C@H](NC(=O)c4ccc(N(C)C)cc4)C(=O)N3C2)c2ccccc2c1=O [Compound 5073, (2R,6S,7R,9S,13aS,14aR,16aS,Z)—N-(cyclopropylsulfonyl)-6-(4-(dimethylamino)benzamido)-2-((3-ethyl-4-oxo-3,4-dihydrophthalazin-1-yl)oxy)-7,9-dimethyl-5,16-dioxo-1,2,3,5,6,7,8,9,10,11,13a,14,14a,15,16,16a-hexadecahydrocyclopropa[e]pyrrolo[1,2-a][1,4]diazacyclopentadecine-14a-carboxamide] |  | > 87.4 |  | > 87.4
13 | CCn1nc(O[C@@H]2C[C@H]3C(=O)N[C@]4(C(=O)NS(=O)(=O)C5CC5)C[C@H]4/C=C\CC[C@@H](C)C[C@@H](C)[C@H](NC(=O)c4ccc(N(C)C)cc4)C(=O)N3C2)c2ccccc2c1=O [Compound 5074, (2R,6S,7R,9R,13aS,14aR,16aS,Z)—N-(cyclopropylsulfonyl)-6-(4-(dimethylamino)benzamido)-2-((3-ethyl-4-oxo-3,4-dihydrophthalazin-1-yl)oxy)-7,9-dimethyl-5,16-dioxo-1,2,3,5,6,7,8,9,10,11,13a,14,14a,15,16,16a-hexadecahydrocyclopropa[e]pyrrolo[1,2-a][1,4]diazacyclopentadecine-14a-carboxamide] |  | 4.82 to 103 |  | 4.82 to 103
14 | CCn1nc(O[C@@H]2C[C@H]3C(=O)N[C@]4(C(=O)NS(=O)(=O)C5CC5)C[C@H]4/C=C\CC[C@H](C)C[C@@H](C)[C@H](NC(=O)C(=O)N(C)C)C(=O)N3C2)c2ccccc2c1=O [Compound 5075, N1-((2R,6S,7R,9S,13aS,14aR,16aS,Z)-14a-((cyclopropylsulfonyl)carbamoyl)-2-((3-ethyl-4-oxo-3,4-dihydrophthalazin-1-yl)oxy)-7,9-dimethyl-5,16-dioxo-1,2,3,5,6,7,8,9,10,11,13a,14,14a,15,16,16a-hexadecahydrocyclopropa[e]pyrrolo[1,2-a][1,4]diazacyclopentadecin-6-yl)-N2,N2-dimethyloxalamide] | 1000 | > 87.4 | ≥ 1000 | > 87.4
